Test results as given in paper PMC8411975, “Frag4Lead: growing crystallographic fragment hits by catalog using fragment-guided template docking” (Acta Crystallographica. Section D, Structural Biology, 2021).
Like-named read-outs stand apart in the source and are kept apart here.

How the values were obtained:
[1] = target: T1, endothiapepsin (EP) (Cryphonectria parasitica, UniProt P11838); set-up: method as in Schiebel, Radeva et al. (2016); settings: starting fragments, ref Schiebel, Radeva et al. (2016), cited from earlier work; for Kd: read-out: Kd (dissociation constant of the compound from EP)
T1 sequence (P11838 90-419): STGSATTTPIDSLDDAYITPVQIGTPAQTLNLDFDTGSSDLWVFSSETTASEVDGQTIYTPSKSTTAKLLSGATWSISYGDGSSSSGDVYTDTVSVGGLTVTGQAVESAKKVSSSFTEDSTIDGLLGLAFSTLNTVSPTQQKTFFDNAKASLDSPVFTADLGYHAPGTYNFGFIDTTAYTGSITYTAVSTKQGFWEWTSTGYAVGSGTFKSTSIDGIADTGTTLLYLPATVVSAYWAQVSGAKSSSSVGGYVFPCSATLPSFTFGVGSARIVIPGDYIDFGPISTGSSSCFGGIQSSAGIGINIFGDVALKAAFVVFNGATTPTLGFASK

[2] = Stability of synthesized compound on exposure to air; type: physicochemical; settings: exposed to air at room temperature over a longer period of time
[3] = Solubility noted during ITC sample preparation; type: physicochemical; settings: ITC buffer, 0.1 M sodium acetate pH 4.6, 3%(v/v) DMSO
Experimental: (§1) ITC experiments were conducted similarly to the procedure desribed by Schiebel, Radeva et al. (2016[▸]) on a MicroCal ITC200 (Malvern) instrument. All buffer solutions for ITC were prepared with the same batch of buffer as used to isolate the batch of EP. Details of the ITC experiments, including the protein and ligand concentrations for each experiment, are listed in Supplementary Table S2. […] All displacement titrations were conducted as single measurements, except for that of FU5-2 (n = 3). The affinities of the stronger binding follow-up ligands were determined by direct ITC titrations. For this, 1 mM compound in a buffer solution consisting of 0.1 M sodium acetate pH 4.6, 3%(v/v) DMSO was titrated into the same buffer additionally containing 50 µM EP to a final stoichiometry of N = 4.

[4] = target: T1, endothiapepsin (EP); experiment: Isothermal titration calorimetry (direct or SAP114-displacement titration) against EP; type: binding; settings: for LE (ligand efficiency): from ITC Kd; for Kd: read-out: Kd determined by ITC; for fold affinity increase compared with the starting fragment: ITC Kd of follow-up versus Kd of its starting fragment
Experimental: as §1
The obtained thermogram peaks of all titrations (Supplementary Fig. S4) were integrated with Nitpic 1.1.8 (Keller et al., 2012[▸]). Subsequently, fitting of a single-site binding-model isotherm was performed using SEDPHAT 10.58d (Houtman et al., 2007[▸]). For the errors of the fit, see Supplementary Table S3. […] During the fit, ΔH was corrected for the heat of dilution, which was individually fitted for each experiment. The stoichiometry was arbitrarily fixed at the anticipated stoichiometry of N = 1 as appropriate for the present low c-value titrations (Rühmann et al., 2015[▸]).
Table S2. Details of ITC measurements.
Follow-Up Titration Concentration Ligand Concentration Final Stoichiometry
Compound Type in Cell Concentration in Syringe (Ligand:Protein)
[a] 0.1% (v/v) Tween 20 in s yringe and cell.
Table S3. Fitting statistics for ITC titration curves
Compound Global reduced chi-square[a] local rmsd[a] (B:A) n[c] Kd [µM] (SD)[d]
Isotherm fitting statistics of ITC data, anal yzed vi a SEDPHAT 10.58d (Houtman et al., 2007).
[a] Goodness of fit p arameters (glob al reduced chi-squ are and wei ghted local rmsd)
[b] Stochiometry o f the ligand protein A and t he ligand B at the infl ection point of the
[c] Number of used data points corresponding to injections of the ITC ex periment

[5] = target: T1, endothiapepsin (EP); experiment: Compound soaking into EP crystals and X-ray crystal structure determination; type: binding; settings: soaking at 100 mM or supernatant, 16–22 h
Experimental: The follow-up compounds (a full list, including providers and purities, if known, is given in Supplementary Table S1) were directly dissolved in a soaking solution consisting of 68.2 mM sodium acetate pH 4.6, 68.2 mM ammonium acetate pH 7.0, 16.9%(w/v) PEG 4000, 19.3%(v/v) glycerol, 9.09%(v/v) DMSO to a concentration of 100 mM. For poorly soluble follow-up compounds, crystals were soaked in the supernatant of the solution. After incubation for 16–22 h the crystals were flash-cooled in liquid nitrogen and stored for diffraction data collection.
All data collections were carried out on beamlines BL14.1 and BL14.2 of the BESSY II electron-storage ring operated by the Helmholtz-Zentrum Berlin (HZB; Mueller et al., 2015[▸]). Typically, 360° of data were collected in 0.1° increments using an exposure time of 0.1 s. Data were automatically processed using XDSAPP (Sparta et al., 2016[▸]).
All structures were refined using the automated script fspipeline, which is based on Schiebel, Krimmer et al. (2016[▸]). The starting model was based on PDB entry 4y5l (Schiebel, Krimmer et al., 2016[▸]), from which all ligands and water molecules were removed. Electron-density maps and coordinate files obtained from the automated refinement were inspected manually for each experiment to judge the presence or absence of the expected ligand in the difference electron density. Subsequently, the identified hits were subjected to several rounds of alternating model building in Coot (Emsley et al., 2010[▸]) and refinement in Phenix (Liebschner et al., 2019[▸]) before and after ligand placement. For all follow-up ligands, occupancy refinement was carried out. Refined models and the corresponding electron-density maps were submitted to the PDB under group deposition ID G_1002201.

Row | Compound | LE (ligand efficiency, binding energy per non-H atom) [1] [kcal mol^−1 per atom] | Kd [1] [µM] | LE (ligand efficiency) [4] [kcal mol^−1 per atom] | Kd [4] [µM] | binding observed in crystal structure after soaking [5] | other results
1 | N=C(N)SCc1ccc(Cl)cc1 [F290] | 0.45 | 100 |  |  |  | 
2 | Cc1cc(CN)n(C)n1 [F058] | 0.31 | 8800 |  |  |  | 
3 | NC1=N/C(=N\Nc2ccccc2)c2ccccc21 [FU5-1] |  |  |  |  |  | stability of the compound [2]: decomposition; solubility [3]: poor solubility
4 | N=C(N)N/N=C1\N=C(N)c2ccccc21 [FU5-4] |  |  | 0.31 | 400 |  | 
5 | Oc1nc(-c2ccco2)ccc1CN(Cc1ccccn1)C1CC1 [FU66-1] |  |  | 0.21 | 160 | observed in the crystal structure | 
6 | NCc1ccc(-c2ccco2)nc1 [F066] | 0.35 | 400 |  |  |  | 
7 | N=C1N=C(N)c2ccccc21 [FU5-2] |  |  | 0.37 | 970 | retained the binding pose of F005 | 
8 | NC1=NCc2ccccc21 [F005] | 0.38 | 1700 |  |  |  | 
9 | NC1=NC(=O)c2ccccc21 [FU5-3] |  |  | 0.39 | 740 | retained the binding pose of F005 | 
10 | CC(SC(=N)N)c1ccc(Cl)cc1 (stereo not shown) [FU290-2] |  |  | 0.40 | 160 |  | 
11 | CN(C)CCNC(=O)c1cc2n(n1)CCN(c1ccnc(N)n1)C2 [FU58-2] |  |  |  |  | observed in crystal structures | 
12 | O=C(CN1CCCCC1)Nc1ccc2c(c1)OCO2 [F041] | 0.22 | 900 |  |  |  | 
13 | CSc1ccc(CN(CCO)Cc2cc(C)nn2C)cc1 [FU58-3] |  |  | 0.19 | 1040 | observed in crystal structures | 
14 | CSc1ccc(CNCCO)cc1 [FU58-3b, 2-{[4-(methylthio)benzyl]amino}ethan-1-ol] |  |  |  |  | identified in the electron density | 
15 | Cc1noc(C)c1CN(C)Cc1cc2n(n1)CCN(c1cc(N)ncn1)C2 [FU58-1] |  |  | 0.17 | 450 | observed in crystal structures | fold affinity increase compared with the starting fragment [4]: about 20 fold
16 | N=C(N)SCc1ccc(CSC(=N)N)cc1 [FU290-1] |  |  | 0.44 | 7.2 |  | fold affinity increase compared with the starting fragment [4]: 14 fold
